Experimental data reported in ChEMBL document CHEMBL1201862, “PubChem BioAssay data set” (2004).
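These data come from cells grown in 96-well plates and exposed to compound for 48 hours at five concentrations. Abbreviation: GI50, concentration required for 50% inhibition of growth.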 Active and inactive are the calls of the source. Cut-off read from the data, not from the text of the source: active = GI50 up to about 1.1 µM and inactive = higher.

Experiments:
Assay in all cases: NCI-60 cell line screen, 48 h
BT-549 = system: BT-549
SNB-75 = system: SNB-75
ACHN = system: ACHN
CAKI-1 = system: CAKI-1
786-0 = system: 786-0
T47D = system: T47D
CCRF-CEM = system: CCRF-CEM
SK-OV-3 = system: SK-OV-3
NCI-H460 = system: NCI-H460
MDA-MB-435 = system: MDA-MB-435
OVCAR-8 = system: OVCAR-8
COLO 205 = system: COLO 205
HL-60 = system: HL-60
A498 = system: A498
LOX IMVI = system: LOX IMVI
HOP-92 = system: HOP-92
UO-31 = system: UO-31
SK-MEL-2 = system: SK-MEL-2
A549 = system: A549
NCI-H226 = system: NCI-H226
HCC 2998 = system: HCC 2998
RXF 393 = system: RXF 393
RPMI-8226 = system: RPMI-8226
SF-539 = system: SF-539
HCT-15 = system: HCT-15
MDA-MB-231 = system: MDA-MB-231
UACC-257 = system: UACC-257
HT-29 = system: HT-29
HOP-62 = system: HOP-62
SK-MEL-5 = system: SK-MEL-5
EKVX = system: EKVX
MDA-N = system: MDA-N
SNB-19 = system: SNB-19
NCI-H23 = system: NCI-H23
OVCAR-4 = system: OVCAR-4
U-251 = system: U-251
HCT-116 = system: HCT-116
NCI/ADR-RES = system: NCI/ADR-RES
K562 = system: K562
SW-620 = system: SW-620
UACC-62 = system: UACC-62
SF-268 = system: SF-268
MCF7 = system: MCF7
M14 = system: M14
DU-145 = system: DU-145
NCI-H522 = system: NCI-H522
SN12C = system: SN12C
PC-3 = system: PC-3
Hs-578T = system: Hs-578T
IGROV-1 = system: IGROV-1
MOLT-4 = system: MOLT-4
OVCAR-5 = system: OVCAR-5
SF-295 = system: SF-295
Malme-3M = system: Malme-3M
KM12 = system: KM12
SK-MEL-28 = system: SK-MEL-28
TK-10 = system: TK-10
OVCAR-3 = system: OVCAR-3

Measured: GI50

COc1cc(/C=C2\CC3C4CC[C@H]5C[C@@H](O)CC[C@]5(C)C4CC[C@]3(C)C2=O)cc(OC)c1OC (stereo partly drawn)
9.59 µM: HCT-15
inactive: BT-549 24.8 µM | SNB-75 14.4 µM | ACHN 11.8 µM | CAKI-1 9.4 µM | 786-0 16 µM | T47D 3.7 µM | CCRF-CEM 7.36 µM | SK-OV-3 11.5 µM | NCI-H460 10.7 µM | MDA-MB-435 13.5 µM | OVCAR-8 15.8 µM | COLO 205 5.93 µM | HL-60 5.75 µM | A498 12.1 µM | LOX IMVI 12.6 µM | HOP-92 26.5 µM | UO-31 4.08 µM | SK-MEL-2 14.9 µM | A549 7.18 µM | NCI-H226 13.6 µM | HCC 2998 7.13 µM | RXF 393 13.9 µM | RPMI-8226 4.17 µM | SF-539 22.6 µM | MDA-MB-231 22.1 µM | UACC-257 21.8 µM | HT-29 9.44 µM | HOP-62 13 µM | SK-MEL-5 9.29 µM | EKVX 12 µM | MDA-N 19.9 µM | SNB-19 17.5 µM | NCI-H23 20.4 µM | OVCAR-4 4.61 µM | U-251 8.26 µM | HCT-116 7.19 µM | NCI/ADR-RES 16.7 µM | K562 4.68 µM | SW-620 24.8 µM | UACC-62 17.6 µM | SF-268 24 µM | MCF7 4.25 µM | M14 17.4 µM | DU-145 27.2 µM | NCI-H522 7.93 µM | SN12C 15.2 µM | PC-3 5.48 µM | Hs-578T 14.4 µM | IGROV-1 36.6 µM | MOLT-4 4.82 µM | OVCAR-5 27 µM | SF-295 4.69 µM | Malme-3M 19.5 µM | KM12 9.75 µM | SK-MEL-28 32.7 µM | TK-10 27.6 µM

OCCOCn1nncc1Cn1ncc2c(SCc3ccccc3)ncnc21
inactive: BT-549 > 100 µM | SNB-75 60.4 µM | ACHN > 100 µM | CAKI-1 > 100 µM | 786-0 34.7 µM | T47D 80.2 µM | SK-OV-3 > 100 µM | NCI-H460 > 100 µM | MDA-MB-435 45.9 µM | OVCAR-8 64 µM | COLO 205 > 100 µM | HL-60 16.5 µM | A498 > 100 µM | LOX IMVI 35.5 µM | HOP-92 80.9 µM | UO-31 66.7 µM | SK-MEL-2 > 100 µM | A549 > 100 µM | NCI-H226 > 100 µM | HCC 2998 > 100 µM | RXF 393 > 100 µM | SF-539 65 µM | MDA-MB-231 > 100 µM | UACC-257 > 100 µM | HT-29 37.7 µM | HOP-62 > 100 µM | SK-MEL-5 > 100 µM | EKVX > 100 µM | MDA-N 54.7 µM | SNB-19 > 100 µM | NCI-H23 > 100 µM | OVCAR-4 88.5 µM | U-251 > 100 µM | HCT-116 45.9 µM | NCI/ADR-RES > 100 µM | OVCAR-3 > 100 µM | K562 37.7 µM | SW-620 15.6 µM | UACC-62 > 100 µM | SF-268 > 100 µM | MCF7 49.3 µM | M14 59.3 µM | DU-145 > 100 µM | NCI-H522 42.8 µM | SN12C 59.4 µM | PC-3 94.8 µM | Hs-578T > 100 µM | IGROV-1 51.1 µM | MOLT-4 6.19 µM | OVCAR-5 > 100 µM | SF-295 > 100 µM | Malme-3M > 100 µM | KM12 > 100 µM | SK-MEL-28 > 100 µM | TK-10 > 100 µM
57.3 µM: HCT-15
